Biological target: T1, FXR (Homo sapiens, UniProt Q96RI1)
T1 sequence (Q96RI1 1-486): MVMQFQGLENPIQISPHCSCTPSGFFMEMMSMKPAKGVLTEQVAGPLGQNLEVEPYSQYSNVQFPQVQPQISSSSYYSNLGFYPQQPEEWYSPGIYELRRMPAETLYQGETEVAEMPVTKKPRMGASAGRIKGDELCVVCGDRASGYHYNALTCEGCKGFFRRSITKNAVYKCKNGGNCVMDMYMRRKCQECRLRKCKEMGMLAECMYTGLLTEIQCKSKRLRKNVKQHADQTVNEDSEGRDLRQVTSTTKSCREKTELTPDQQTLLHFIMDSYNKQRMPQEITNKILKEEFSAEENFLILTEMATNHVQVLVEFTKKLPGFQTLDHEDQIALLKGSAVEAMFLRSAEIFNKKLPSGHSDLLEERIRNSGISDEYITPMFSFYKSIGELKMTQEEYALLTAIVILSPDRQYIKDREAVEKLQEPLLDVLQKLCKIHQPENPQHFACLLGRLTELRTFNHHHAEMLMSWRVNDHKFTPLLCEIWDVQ
Experiment: activity on nuclear receptor FXR
Assay type: cell-based

activity on FXR: did not show any
SMILES: Cc1cc(OC/C=C(/c2ccc(F)cc2)c2ccc(C#CCN3CCOCC3)cc2)ccc1OCC(=O)O [Compound 1, (E)-[4-[3-(4-Fluorophenyl)-3-[4-[3-(morpholin-4-yl)propynyl]phenyl]allyloxy]-2-methyl-phenoxy]acetic acid]

Reference: patent US20220023306A1, “USE OF A PPAR-DELTA AGONIST IN THE TREATMENT OF FATTY ACID OXIDATION DISORDERS (FAOD)” (Reneo Pharmaceuticals, Inc., priority 2019, published 2022)
